Experimental data from patent publication US20160143917A1, “COMPOSITIONS AND METHODS FOR MODULATING HIV ACTIVATION” (priority 2013, published 2016).
Values joined by “and” are separate entries in the source; they are usually repeats but may differ in a detail not shown here. Equal values may be shown once.

Experiments:
[1] = test system: latently HIV provirus infected Jurkat (T-cell) clone 2D10 cells carrying a GFP-expressing provirus; test: Reactivation of latent HIV provirus (GFP expression) in 2D10 cells; format: cell-based, human; details: for Un-stimulated: drug alone, no TNFα or SAHA, drug concentration (Fulvestrant 2.5 μM, Y-134 5 μM, Endoxifen 5 μM, MPP 5 μM, Tamoxifen 10 μM, Gossypol 5 μM, PPT 100 μM, Stilbestrol 5 μM); for 250 nM SAHA drug: drug at row concentration plus sub-optimum 250 nM SAHA; for +100 pg/ml TNFα drug: drug plus sub-optimum 100 pg/ml TNFα; for +400 pg/ml TNFα drug: pre-treatment with agonist at row concentration plus 400 pg/ml TNFα; for 2 μM SAHA drug: pre-treatment with agonist at row concentration plus 2 μM SAHA
Text: Still other ESR-1 antagonists can be identified and screened for potential induction of latent HIV activation by using cell based assays described in Examples 1 and 2. For example to determine whether a composition or potential ESR-1 antagonist can induce HIV-1 provirus re-activation in latently infected primary T-cells (Th17), the ESR-1 antagonist can be administered to latently HIV provirus infected Jurkat (T-cell) clone 2D10 cells carrying a GFP-expressing provirus. The level of GFP expression can then be measured to determine activation. In another example, the ESR-1 antagonist can be administered to the latently infected primary T-cells (Th17) and phosphorylation of serine 175 of CDK9 can be measured by flow cytometry analysis. Along with CDK9 pSer175, expression of viral protein Nef can also measured.
FIG. 2 illustrates the ESR1 antagonist Fulvestrant weakly stimulates 2D10 reactivation and sensitizes the cells to reactivation by sub-optimal concentrations of TNF-α. A. Unstimulated cells showing the low basal activation levels of approximately 2%. […] C. Activation of cells with 2.5 μM Fulvestrant.
To further validate involvement of ESR-1 in latency maintenance program, we have examined a series of antagonists and agonist as represented in Table 2 on 2D10. In all the cases it was observed that blocking of ESR-1 by antagonist either constitutively re-activate or sensitizes the pro-virus to sub-optimum dose of TNFα (100 pg/ml) and SAHA (250 nM).

[2] = test system: Latently HIV-1 infected Th17 primary cells; test: Reactivation of latent provirus in primary Th17 cells, HIV Nef protein expression; format: cell-based; details: single agent; untreated cells 2.54%
Text: FIG. 3 illustrates latently infected primary T-cells are reactivated by the ESR1 antagonist, Fulvestrant (ICI.182780). […] B. Stimulation of the latently infected cells through the T-cell receptor using antibodies to CD3/CD28 re-activated 60.82% of the cells in the population. C. […] Method: Naive T-cells from healthy donors were activated using anti-CD3/[…] antibodies and polarized in the direction of primary Th-17 cells using a cocktail of cytokines. The exponentially growing cells were infected with HIV-1 virus containing d2EGFP fused to CD8a for surface expression of the reporter gene. The CD8a positive cells were purified using CD8a antibody conjugated magnetic beads. The HIV-1 infected cells were allowed to become quiescent by culturing in media containing minimal levels of IL2.

[3] = test system: CHME5/HIV cells, a latently infected Fetal Microglia Cell line; test: Reactivation of latent HIV provirus (GFP expression) in microglial cells; format: cell-based
Method: FIGS. 5(A-D) illustrate histograms showing GFP expression in CHME5/HIV cells, a latently infected Fetal Microglia Cell line carrying a GFP-expressing provirus, that are: (A) unstimulated; (B) administered a suboptimal dose of TNFα (10 ng/ml); (C) administered […] Fulvestrant; or (D) pre-treated with Fulvestrant and administered a suboptimal dose of TNFα.
A. Unstimulated CHME5/HIV cells, a latently infected Fetal Microglia Cell line. Basal activation levels were 2.31%. B. Reactivation of CHME5/HIV cells with a suboptimal dose of TNFα (10 ng/ml) induced 13.96% of the proviruses. C. […] These observations indicate that pro-virus reactivation by modulating the ESR-1 is specific for T-cell.

[4] = test system: latently infected primary T-cells (Th17); test: CDK9 pSer175 and Nef by flow cytometry in latently infected primary T-cells; format: cell-based
Method: At the time of HIV-1 provirus re-activation one of the key marker is phosphorylation of serine 175 amino acid residue of CDK9 (CDK9 pSer175). To determine the status of HIV-1 provirus re-activation in latently infected primary T-cells (Th17) by ESR-1 antagonist Tamoxifen, phosphorylation of serine 175 of CDK9 was measured by flow cytometry analysis. Along with CDK9 pSer175, expression of viral protein Nef was also measured. […] Keeping that in mind, latently infected primary T-cell was treated with tamoxifen and SAHA alone or in combination where sub-optimum dose of (250 nM) was used (FIGS. 11 B, D, E). […] Therefore re-activation of latent provirus in Gossypol and/or SAHA treated primary T-cell was also examined (FIGS. 11 C-D).

Compound: CC/C(=C(\c1ccc(O)cc1)c1ccc(OCCNC)cc1)c1ccccc1 [Endoxifen]
- Un-stimulated [1]: 9.70%
- 250 nM SAHA drug [1]: 26.63%
- +100 pg/ml TNFα drug [1]: 29.31%

Compound: C[C@]12CC[C@@H]3c4ccc(O)cc4C[C@@H](CCCCCCCCC[S+]([O-])CCCC(F)(F)C(F)(F)F)[C@H]3[C@@H]1CC[C@@H]2O (stereo partly shown) [Fulvestrant]
- reactivation of latent provirus (GFP) ([1]; 2.5 μM Fulvestrant alone): small but significant reactivation
- GFP levels ([1]; 50 μM Fulvestrant alone): 8.05%
- Un-stimulated [1]: 2.68%
- 250 nM SAHA drug [1]: 17.78%
- +100 pg/ml TNFα drug [1]: 41.01%
- reactivation of latent population (GFP) ([1]; one hour pre-treatment with Fulvestrant, then 100 pg/ml TNFα): 41.01%
- reactivation of pro-virus (GFP) ([1]; pre-treatment with Fulvestrant (50 μM) for one hour, then 250 nM SAHA): 18.80%
- latent proviruses/cells re-activated, measured by expression of the HIV Nef protein [2]: 25.27%
- stimulation of CHME5/HIV cells (GFP) ([3]; 2.5 mM Fulvestrant alone): did not stimulated CHME5/HIV cells beyond basal levels
- sensitization towards TNFα stimulation (GFP) ([3]; pre-treatment with Fulvestrant, then suboptimal TNFα (10 ng/ml)): did not sensitize the latent population towards TNFα stimulation

Compound: Cc1cc2c(C(C)C)c(O)c(O)c(C=O)c2c(O)c1-c1c(C)cc2c(C(C)C)c(O)c(O)c(C=O)c2c1O [Gossypol]
- proviral re-activation (GFP) ([1]; 5 μM Gossypol alone): 30.58%
- re-activation (GFP) ([1]; 5 μM Gossypol combined with 100 pg/ml TNFα (sub-optimum)): 60.15%
- Un-stimulated [1]: 30.58%
- +100 pg/ml TNFα drug [1]: 60.15%
- pro-virus re-activation (GFP) ([3]; Gossypol alone): 1.60%
- re-activation of pro-virus (GFP) ([3]; Gossypol combined with 10 ng/ml TNFα (sub-optimum)): 10.24%

Compound: Cc1c(-c2ccc(O)cc2)nn(-c2ccc(O)cc2)c1-c1ccc(OCCN2CCCCC2)cc1 [MPP]
- Un-stimulated [1]: 14.49%
- 250 nM SAHA drug [1]: 31.14%
- +100 pg/ml TNFα drug [1]: 39.60%

Compound: CCCc1c(-c2ccc(O)cc2)nn(-c2ccc(O)cc2)c1-c1ccc(O)cc1 [PPT, 4,4′,4″-(4-Propyl-[1H]-pyrazole-1,3,5-triyl)trisphenol]
- reactivation of latently infected cells (GFP) ([1]; 100 μM PPT alone): not reactivated
- Un-stimulated [1]: 3.57%
- activation of the cells (GFP) ([1]; pre-treatment with PPT, then SAHA (1 μM)): 8.77%
- +400 pg/ml TNFα drug [1]: 13.41%
- 2 μM SAHA drug [1]: 6.76%
- reactivation induced by TNFα (GFP) ([1]; pretreatment with PPT for one hour, then 400 pg/ml TNFα): 13.41%

Compound: O=C(CCCCCCC(=O)Nc1ccccc1)NO [SAHA, suberoylanilide hydroxamic acid]
- cells induced (GFP) ([1]; 250 nM SAHA alone (sub-optimum)): 5.25%
- re-activation of the population (GFP) ([1]; 1 μM SAHA alone): 65.87%
- 250 nM SAHA ([1]; Control (2D10), 250 nM SAHA alone, no ESR-1 drug): 14.34%
- 2 μM SAHA ([1]; Control (2D10), 2 μM SAHA alone, no ESR-1 drug): 65.43% and 71.83%

Compound: CC/C(=C(/CC)c1ccc(O)cc1)c1ccc(O)cc1 [Stilbestrol]
- Un-stimulated [1]: 6.20%
- +400 pg/ml TNFα drug [1]: 33.70%
- 2 μM SAHA drug [1]: 4.34%
- effect of agonist pre-treatment on provirus re-activation ([1]; pre-treatment, optimum dose of TNFα (400 pg/ml) and SAHA (2 μM)): block the re-activation of latent pro-virus

Compound: CC/C(=C(\c1ccccc1)c1ccc(OCCN(C)C)cc1)c1ccccc1 [Tamoxifen]
- Un-stimulated [1]: 12.09%
- 250 nM SAHA drug [1]: 22.50%
- +100 pg/ml TNFα drug [1]: 33.03%
- re-activation of latent provirus (CDK9 pSer175 and Nef expression) ([4]; drug alone): failed to re-activate latent provirus
- re-activation of latent provirus (CDK9 pSer175 and Nef expression) ([4]; drug combined with sub-optimum SAHA (250 nM)): elevated expression of both CDK9 pSer175 and Nef

Compound: C[C@]12CC[C@@H]3c4ccc(O)cc4CC[C@H]3[C@@H]1CC[C@@H]2O [β-estradiol]
- stimulation of latent HIV proviruses (GFP) ([1]; estrogen-depleted media, 2 ng/ml β-estradiol alone): does not stimulate latent HIV proviruses
- responsiveness to TNFα (GFP) ([1]; estrogen-depleted media, 2 ng/ml β-estradiol plus 400 pg/ml TNFα): did not enhance responsiveness

Compound: TNFα
- re-activation of latent provirus (GFP) ([1]; 100 pg/ml TNFα alone (sub-optimal)): 15.95%
- proviral re-activation (GFP) ([1]; 400 pg/ml TNFα alone): 70.88%
- +100 pg/ml TNFα ([1]; Control (2D10), 100 pg/ml TNFα alone, no ESR-1 drug): 16.15%
- 400 pg/ml TNFα ([1]; Control (2D10), 400 pg/ml TNFα alone, no ESR-1 drug): 70.88% and 88.12%
- proviruses stimulated (GFP) ([1]; phenol-red free media, 10% charcoal-stripped FBS (estrogen-depleted), 400 pg/ml TNFα alone): 79.59%
- proviruses induced (GFP) ([3]; 10 ng/ml TNFα alone (suboptimal), basal 2.31%): 13.96%
